Legend:
PKC theta = biological target: T1, PKC theta (Homo sapiens, UniProt Q04759); test: PKC assay, fluorescence polarization (Example 2), PKC theta; format: biochemical; settings: 5 μM ATP
T1 construct: purchased Upstate Biotechnologies, Temecula, CA 14-444
Experimental: (§1) The inhibition of PKC activity was measured by monitoring the production of phosphorylated peptide by fluorescence polarization at different concentrations of the inhibitor. Reactions were carried out in 96-well plate format with a total volume of 20 μL containing 20 mM HEPES, pH 7.4, 5 mM MgCl2, 0.2 mM CaCl2, 1 mM DTT, 0.02% Brij-35, 0.1 mg/mL phosphatidylserine, 0.02 mg/mL dioleoyl-sn-glycerol and 5 μM each of ATP and the peptide substrate. Compounds were first diluted serially in DMSO and then transferred to a solution containing the above concentrations of HEPES, MgCl2, CaCl2, DTT, and Brij-35 to yield 5× compound solutions in 2% DMSO, which was then added to the reaction solution. Reactions were initiated by the addition of PKC at a typical concentration as described in Table VI, and then allowed to incubate at room temperature for 20 min. At the end of this time, a combination of quench (EDTA) and detection (peptide tracer and antibody) reagents was added using the protocol of Invitrogen P2748.

PKC epsilon = biological target: T2, PKC epsilon (Homo sapiens, UniProt Q02156); test: PKC assay, fluorescence polarization (Example 2), PKC epsilon; format: biochemical; settings: 5 μM ATP
T2 construct: purchased Upstate Biotechnologies, Temecula, CA 14-518
T2 sequence (Q02156 1-737): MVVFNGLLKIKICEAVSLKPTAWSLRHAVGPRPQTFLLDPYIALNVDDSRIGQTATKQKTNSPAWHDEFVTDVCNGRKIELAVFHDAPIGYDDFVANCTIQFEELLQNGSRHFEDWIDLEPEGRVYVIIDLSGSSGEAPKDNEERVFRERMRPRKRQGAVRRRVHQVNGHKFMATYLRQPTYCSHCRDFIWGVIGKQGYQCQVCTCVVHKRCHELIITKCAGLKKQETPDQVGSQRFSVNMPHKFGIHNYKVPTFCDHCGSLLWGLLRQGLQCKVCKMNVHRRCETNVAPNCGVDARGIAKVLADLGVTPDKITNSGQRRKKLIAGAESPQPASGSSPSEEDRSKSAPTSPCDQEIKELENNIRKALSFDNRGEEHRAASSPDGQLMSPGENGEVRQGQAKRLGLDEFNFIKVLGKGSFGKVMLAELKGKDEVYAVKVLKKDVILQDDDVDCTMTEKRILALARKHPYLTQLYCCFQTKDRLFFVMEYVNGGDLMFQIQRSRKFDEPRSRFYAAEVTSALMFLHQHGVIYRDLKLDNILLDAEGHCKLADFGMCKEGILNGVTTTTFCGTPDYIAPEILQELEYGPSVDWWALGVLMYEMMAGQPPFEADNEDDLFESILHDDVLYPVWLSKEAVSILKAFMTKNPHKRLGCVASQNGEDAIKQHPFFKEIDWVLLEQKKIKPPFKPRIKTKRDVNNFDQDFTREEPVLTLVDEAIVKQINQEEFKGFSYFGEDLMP
Experimental: as §1

Human primary T cells = test: IL-2 ELISA, Human Primary T Cell, Anti-CD3+CD28+ (Example 3); format: cell-based; settings: Homo sapiens, T-cell, 24 h, anti-CD3+CD28 stimulation
How it was run: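 Human primary T cells, 100,000 per well, were pre-incubated with compound in Yssel's medium for 1 h at 37 °C. The counter-assay used 0.5 ng/ml PMA with 0.1 uM ionomycin final.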

T1 sequence (Q04759 whole entry): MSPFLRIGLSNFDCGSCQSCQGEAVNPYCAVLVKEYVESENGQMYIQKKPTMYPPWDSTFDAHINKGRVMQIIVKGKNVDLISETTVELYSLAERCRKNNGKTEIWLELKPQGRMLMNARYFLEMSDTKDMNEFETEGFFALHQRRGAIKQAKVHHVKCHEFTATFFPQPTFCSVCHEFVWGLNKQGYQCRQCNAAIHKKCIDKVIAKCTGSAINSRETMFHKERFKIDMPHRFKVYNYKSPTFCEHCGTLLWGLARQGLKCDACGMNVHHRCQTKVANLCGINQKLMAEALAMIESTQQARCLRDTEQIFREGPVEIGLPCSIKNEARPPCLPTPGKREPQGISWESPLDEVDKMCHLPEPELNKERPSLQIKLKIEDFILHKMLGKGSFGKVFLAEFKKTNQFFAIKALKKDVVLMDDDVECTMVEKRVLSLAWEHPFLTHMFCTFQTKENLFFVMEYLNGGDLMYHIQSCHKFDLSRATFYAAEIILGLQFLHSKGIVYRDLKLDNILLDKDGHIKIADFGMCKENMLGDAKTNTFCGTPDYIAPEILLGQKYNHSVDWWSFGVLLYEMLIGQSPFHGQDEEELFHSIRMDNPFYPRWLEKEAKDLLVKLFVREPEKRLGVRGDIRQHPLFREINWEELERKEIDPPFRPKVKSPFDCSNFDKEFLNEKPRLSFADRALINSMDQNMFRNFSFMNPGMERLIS

IC50 (PKC theta) [nM] | IC50 (PKC epsilon) [nM] | IC50 (Human primary T cells) [nM] | SMILES
50.4 | 413 | 129 | CN1C(C)(C)CC(Nc2nc(Nc3cc(Cl)cc(Cl)c3)ncc2F)CC1(C)C [Compound I-103]
1.5 | 129 | 120 | CCOc1ccc(Nc2ncc(C#N)c(NC3CC(C)(C)NC(C)(C)C3)n2)cc1-n1nnnc1CC [Compound I-469]
6.54 | 40.7 | 205 | CN1C(C)(C)CC(Nc2nc(Nc3ccc(OC(F)F)c(OC(F)F)c3)ncc2F)CC1(C)C [Compound I-344]
5.48 | 158 | 229 | CN1C(C)(C)CC(Nc2nc(Nc3ccc(F)c(C#N)c3)ncc2F)CC1(C)C [Compound I-140]
3.6 | 125 | 590 | Cc1nnnn1-c1cccc(Nc2ncc(C#N)c(NC3CC(C)(C)NC(C)(C)C3)n2)c1 [Compound I-463]
3.29 | 249 | 245 | CN1C(C)(C)CC(Nc2nc(Nc3ccc(C#N)c(C#N)c3)ncc2F)CC1(C)C [Compound I-141]
3.87 | 197 | 227 | CN1C(C)(C)CC(Nc2nc(Nc3ccc(-n4cccc4)c(C#N)c3)ncc2Cl)CC1(C)C [Compound I-167]
1.35 | 27.1 | 26.4 | CCN1C(=O)C(F)(F)Oc2cc(Nc3ncc(F)c(NC4CC(C)(C)N(C)C(C)(C)C4)n3)ccc21 [II-31]
4.56 | 81.7 | 177 | CN1C(C)(C)CC(Nc2nc(Nc3ccc(-c4ccncc4)c(C(F)(F)F)c3)ncc2F)CC1(C)C [Compound I-96]
2.59 | 208 | 344 | COc1ccc(Nc2ncc(C#N)c(NC3CC(C)(C)N(C)C(C)(C)C3)n2)cc1Cl [Compound I-93]
19.9 | 66.9 | 131 | CCCN1CCN(c2ccc(Nc3ncc(F)c(NC4CC(C)(C)N(C)C(C)(C)C4)n3)cc2C(F)(F)F)CC1 [Compound I-247]
6.1 | 140 | 280 | CN1C(C)(C)CC(Nc2nc(Nc3ccc4c(c3)oc(=O)n4CC3CC3)ncc2F)CC1(C)C [II-163]
698 | 941 | – | CN1C(C)(C)CC(Nc2nc(Nc3cccc(-c4nn[nH]n4)c3)ncc2F)CC1(C)C [Compound I-470]
123 | – | 252 | CN1C(C)(C)CC(Nc2nc(Nc3cc(C(F)(F)F)cc(C(F)(F)F)c3)ncc2F)CC1(C)C [Compound I-146]
1.41 | – | 92.4 | CN1C(C)(C)CC(Nc2nc(Nc3ccc(-c4cccnc4)c(C#N)c3)ncc2F)CC1(C)C [Compound I-186]
11.7 | – | 443 | CN1CCN(c2ccc(Nc3ncc(C#N)c(NC4CC(C)(C)N(C)C(C)(C)C4)n3)cc2C(F)(F)F)CC1 [Compound I-94]
– | 982 | – | CC1(C)CC(Nc2nc(Nc3cccc(-c4nn[nH]n4)c3)ncc2F)CC(C)(C)N1 [Compound I-471]
5 | – | 113 | COc1ccc(Nc2ncc(F)c(NC3CC(C)(C)N(C)C(C)(C)C3)n2)cc1Cl [Compound I-20]
38.7 | – | 517 | CC1(C)CC(Nc2nc(Nc3cccc(C#N)c3)ncc2F)CC(C)(C)N1 [Compound I-70]
34.4 | – | 494 | CN1C(C)(C)CC(Nc2nc(Nc3cccc(-c4cnco4)c3)ncc2F)CC1(C)C [Compound I-100]
82.9 | – | 440 | CN1C(C)(C)CC(Nc2nc(Nc3cc(-c4cnn(C)c4)cc(C(F)(F)F)c3)ncc2F)CC1(C)C [Compound I-204]
130 | – | 1060 | CN1CCC(Nc2nc(Nc3cccc(C#N)c3)ncc2F)CC1 [III-2, N2-(3-Cyano)phenyl-5-fluoro-N4-(1-methylpiperidin-4-yl)-2,4-pyrimidinediamine]
34.1 | – | 248 | CN1C(C)(C)CC(Nc2nc(Nc3ccc(N4CCN(S(C)(=O)=O)CC4)c(C(F)(F)F)c3)ncc2F)CC1(C)C [Compound I-244]
7.11 | – | 205 | CN1C(C)(C)CC(Nc2nc(Nc3ccc(N4CCN(S(C)(=O)=O)CC4)c(C#N)c3)ncc2Cl)CC1(C)C [Compound I-175]

IC50 (PKC theta) [nM] | IC50 (PKC epsilon) [nM] | IC50 (Human primary T cells) [nM] | SMILES
92 | – | 427 | CN1C(C)(C)CC(Nc2nc(Nc3cc(-c4ccoc4)cc(C(F)(F)F)c3)ncc2F)CC1(C)C [Compound I-203]
5 | – | 108 | CN1CCN(c2ccc(Nc3ncc(F)c(NC4CC(C)(C)N(C)C(C)(C)C4)n3)cc2Cl)CC1 [Compound I-3]
21 | – | 177 | CN1C(C)(C)CC(Nc2nc(Nc3ccc(C#N)c(Cl)c3)ncc2F)CC1(C)C [Compound I-22]
111 | – | 892 | CN1C(C)(C)CC(Nc2nc(Nc3ccc(-c4ccoc4)cc3)ncc2F)CC1(C)C [Compound I-125]
10.7 | – | 270 | CN1C(C)(C)CC(Nc2nc(Nc3ccc(N4CCN(S(=O)(=O)C5CC5)CC4)c(Cl)c3)ncc2F)CC1(C)C [Compound I-174]
407 | – | 1570 | CN1CCN(c2cccc(Nc3ncc(F)c(NC4CC(C)(C)N(C)C(C)(C)C4)n3)c2)CC1 [Compound I-2]
80.8 | – | 872 | CN1C(C)(C)CC(Nc2nc(Nc3ccc(-c4ccncc4)cc3)ncc2F)CC1(C)C [Compound I-123]
5 | – | 91 | COc1ccc(Nc2ncc(Cl)c(NC3CC(C)(C)N(C)C(C)(C)C3)n2)cc1Cl [Compound I-31]
26.6 | – | 377 | CN1C(C)(C)CC(Nc2nc(Nc3ccc(N4CCN(S(=O)(=O)C5CC5)CC4)c(C(F)(F)F)c3)ncc2F)CC1(C)C [Compound I-173]
20.6 | – | 489 | CN1C(C)(C)CC(Nc2nc(Nc3ccc(F)c(Br)c3)ncc2F)CC1(C)C [Compound I-158]
53.9 | – | 488 | COc1ccc(Nc2ncc(F)c(NC3CC(C)(C)NC(C)(C)C3)n2)cc1Cl [Compound I-254]
22 | – | 341 | Cc1cc(C)cc(Nc2ncc(F)c(NC3CC(C)(C)N(C)C(C)(C)C3)n2)c1 [Compound I-12]
3.8 | – | 290 | CN1C(C)(C)CC(Nc2nc(Nc3ccc(Cl)c(C#N)c3)ncc2F)CC1(C)C [Compound I-163]
1040 | – | 1500 | CC1CN(c2cc(Nc3ncc(F)c(NC4CC(C)(C)N(C)C(C)(C)C4)n3)ccc2Cl)CC(C)N1C (stereo not drawn) [Compound I-250]
2.5 | – | 500 | CC1(C)CC(Nc2nc(Nc3ccc4c(c3)oc(=O)n4CC3CC3)ncc2C#N)CC(C)(C)N1 [II-97]
32.6 | – | 202 | Cc1ccc(Nc2ncc(F)c(NC3CC(C)(C)N(C)C(C)(C)C3)n2)cc1Br [Compound I-160]
32.4 | – | 1680 | CN1CCC(Nc2nc(Nc3ccc(N4CCN(C)CC4)c(Cl)c3)ncc2F)CC1 [III-4, N2-[3-Chloro-4-(4-methylpiperazino)]phenyl-5-fluoro-N4-(1-methylpiperidin-4-yl)-2,4-pyrimidinediamine]
43 | – | 347 | CN1C(C)(C)CC(Nc2nc(Nc3ccc(N4CCN(S(C)(=O)=O)CC4)c(C(F)(F)F)c3)ncc2C#N)CC1(C)C [Compound I-95]
107 | – | 345 | CN1C(C)(C)CC(Nc2nc(Nc3ccc(Br)c(C(F)(F)F)c3)ncc2F)CC1(C)C [Compound I-109]
30 | – | 254 | Cc1cc(Nc2ncc(F)c(NC3CC(C)(C)N(C)C(C)(C)C3)n2)ccc1N1CCN(C)CC1 [Compound I-4]
7.29 | – | 296 | COc1ccc(Nc2ncc(F)c(NC3CC(C)(C)N(C)C(C)(C)C3)n2)cc1Br [Compound I-159]
13.7 | – | 136 | CCCN1CCN(c2ccc(Nc3ncc(F)c(NC4CC(C)(C)N(C)C(C)(C)C4)n3)cc2Cl)CC1 [Compound I-249]
5 | – | 86 | CN1CCN(c2ccc(Nc3ncc(F)c(NC4CC(C)(C)N(C)C(C)(C)C4)n3)cc2C(F)(F)F)CC1 [Compound I-5]
